pIC50, pKd: −log10 of the molar value. Structures can show the parent of a compound that is named as a salt.
Experiments:
[1] = target: T1, proMMP9(67-444;ΔFnII) (SEQ ID NO:5) (Homo sapiens, UniProt P14780, DEL216-390); assay: ThermoFluor binding assay with proMMP9(67-444;ΔFnII)
T1 construct: start methionine (N); made in house; host or cells: E. coli BL21(DE3) RIL
T1 sequence (P14780 with tags, fused parts or gaps DEL216-390): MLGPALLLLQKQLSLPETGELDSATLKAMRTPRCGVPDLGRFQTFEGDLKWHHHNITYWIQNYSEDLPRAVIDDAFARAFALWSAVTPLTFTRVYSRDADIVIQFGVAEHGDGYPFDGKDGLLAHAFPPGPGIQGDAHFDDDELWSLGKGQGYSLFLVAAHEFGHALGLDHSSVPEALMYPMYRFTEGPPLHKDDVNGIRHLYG
Protocol: (§1) The ThermoFluor® (TF) assay is a 384-well plate-based binding assay that measures thermal stability of proteins (Biomol Screen 2001, 6, 429-40; Biochemistry 2005, 44, 5258-66). The experiments were carried out using instruments available from Johnson & Johnson Pharmaceutical Research & Development, LLC. TF dye used in all experiments was […] (1,8-ANS) (Invitrogen: A-47).
(§2) Compounds were arranged in a pre-dispensed plate (Greiner Bio-one: 781280), wherein compounds were serially diluted in 100% DMSO across 11 columns within a series. Columns 12 and 24 were used as DMSO reference and contained no compound. For multiple compound concentration-response experiments, the compound aliquots ([…]) were robotically predispensed directly into black 384-well polypropylene PCR microplates (Abgene: TF-0384/k) using a Cartesian Hummingbird liquid handler (DigiLab, Holliston, Mass.). Following compound dispense, protein and dye solutions were added to achieve the final assay volume of 3 μL. The assay solutions were overlayed with 1 μL of silicone oil (Fluka, type DC 200: 85411) to prevent evaporation.
(§3) Assay plates were robotically loaded onto a thermostatically controlled PCR-type thermal block and then heated from 40 to 90° C. at a ramp-rate of 1° C./min for all experiments. Fluorescence was measured by continuous illumination with UV light (Hamamatsu LC6) supplied via fiber optics and filtered through a band-pass filter (380-400 nm; >60D cutoff). Fluorescence emission of the entire 384-well plate was detected by measuring light intensity using a CCD camera (Sensys, Roper Scientific) filtered to detect 500±25 nm, resulting in simultaneous and independent readings of all 384 wells. A single image with 20-sec exposure time was collected at each temperature, and the sum of the pixel intensity in a given area of the assay plate was recorded vs temperature and fit to standard equations to yield the Tm (J Biomol Screen 2001, 6, 429-40).
(§4) Thermodynamic parameters necessary for fitting compound binding for each proMMP were estimated by differential scanning calorimetry (DSC) and from ThermoFluor® data. The heat capacity of unfolding for each protein was estimated from the molecular weight and from ThermoFluor® dosing data.
ThermoFluor® with proMMP9(67-444;ΔFnII (SEQ ID NO:5)
The protein sample preparations had to include a desalting buffer exchange step via a PD-10 gravity column (GE Healthcare). The desalting buffer exchange was performed prior to diluting the protein to the final assay concentration of 3.5 μM proMMP9(67-444;ΔFnII) (SEQ ID NO:5). The concentration of proMMP9(67-444;ΔFnII) (SEQ ID NO:5) was determined spectrophotometrically based on a calculated extinction coefficient of ε280=33900 M^−1 cm^−1, a calculated molecular weight of 22.6 kDa, and calculated pI of 5.20. ThermoFluor® reference conditions were defined as follows: 80 μg/mL (3.5 μM) proMMP9(67-444;ΔFnII) (SEQ ID NO:5), 50 μM 1,8-ANS, pH 7.0 Buffer (50 mM HEPES pH 7.0, 100 mM NaCl, 0.001% Tween-20, 2.5 mM MgCl2, 300 μM CaCl2). The thermodynamic parameters for proMMP9(67-444;ΔFnII) (SEQ ID NO:5) are as follows: Tm (° C.)=63 (+/−0.1), ΔUH(Tm) (cal mol^−1)=105000(+/−5000), ΔUS(Tm) (cal mol^−1 K^−1)=450, ΔuCp (cal mol^−1 K^−1)=2000.

[2] = target: T2, proMMP9(20-445;ΔFnII) (SEQ ID NO:6) (Homo sapiens, UniProt P14780, DEL216-390); assay: ThermoFluor binding assay with proMMP9(20-445;ΔFnII)
T2 construct: start methionine (N); made in house; host or cells: E. coli BL21(DE3) RIL
T2 sequence (P14780 with tags, fused parts or gaps DEL216-390): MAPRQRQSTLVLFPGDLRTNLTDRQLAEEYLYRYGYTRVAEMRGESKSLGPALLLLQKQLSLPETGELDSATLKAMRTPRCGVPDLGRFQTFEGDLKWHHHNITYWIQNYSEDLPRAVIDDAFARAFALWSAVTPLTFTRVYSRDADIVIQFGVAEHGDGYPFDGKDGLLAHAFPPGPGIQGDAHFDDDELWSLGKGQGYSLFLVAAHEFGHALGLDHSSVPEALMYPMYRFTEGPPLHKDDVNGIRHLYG
Protocol: as §1, §2, §3, §4
ThermoFluor® with proMMP9(20-445;ΔFnII (SEQ ID NO:6)
The protein sample preparations included a desalting buffer exchange step via a PD-10 gravity column (GE Healthcare). The desalting buffer exchange was performed prior to diluting the protein to the final assay concentration of 2.8 μM proMMP9(20-445;ΔFnII) (SEQ ID NO:6). The concentration of proMMP9(20-445;ΔFnII) (SEQ ID NO:6) was determined spectrophotometrically based on a calculated extinction coefficient of ε280=39880 M^−1 cm^−1, a calculated molecular weight of 28.2 kDa, and calculated pI of 5.5. ThermoFluor® reference conditions were define as follows: 80 μg/mL (2.8 μM) proMMP9(20-445;ΔFnII) (SEQ ID NO:6), 50 μM 1,8-ANS, pH 7.0 Buffer (50 mM HEPES pH 7.0, 100 mM NaCl, 0.001% Tween-20, 2.5 mM MgCl2, 300 μM CaCl2). The thermodynamic parameters for proMMP9(20-445;ΔFnII) (SEQ ID NO:6) are as follows: Tm (° C.)=72 (+/−0.1), ΔUH(Tm) (cal mol^−1)=160000(+/−5000), ΔUS(Tm) (cal mol^−1 K^−1)=434, ΔUCp (cal mol^−1 K^−1)=2400.

[3] = target: T3, full-length proMMP9(1-707) (SEQ ID NO:1), activation by catalytic MMP3 (Homo sapiens, UniProt P14780, R574P); assay: proMMP9/MMP3 P126 Activation Assay; type: biochemical
T3 construct: made in house; host or cells: HEK293 (transient, secreted)
T3 sequence (P14780 20-707 R574P): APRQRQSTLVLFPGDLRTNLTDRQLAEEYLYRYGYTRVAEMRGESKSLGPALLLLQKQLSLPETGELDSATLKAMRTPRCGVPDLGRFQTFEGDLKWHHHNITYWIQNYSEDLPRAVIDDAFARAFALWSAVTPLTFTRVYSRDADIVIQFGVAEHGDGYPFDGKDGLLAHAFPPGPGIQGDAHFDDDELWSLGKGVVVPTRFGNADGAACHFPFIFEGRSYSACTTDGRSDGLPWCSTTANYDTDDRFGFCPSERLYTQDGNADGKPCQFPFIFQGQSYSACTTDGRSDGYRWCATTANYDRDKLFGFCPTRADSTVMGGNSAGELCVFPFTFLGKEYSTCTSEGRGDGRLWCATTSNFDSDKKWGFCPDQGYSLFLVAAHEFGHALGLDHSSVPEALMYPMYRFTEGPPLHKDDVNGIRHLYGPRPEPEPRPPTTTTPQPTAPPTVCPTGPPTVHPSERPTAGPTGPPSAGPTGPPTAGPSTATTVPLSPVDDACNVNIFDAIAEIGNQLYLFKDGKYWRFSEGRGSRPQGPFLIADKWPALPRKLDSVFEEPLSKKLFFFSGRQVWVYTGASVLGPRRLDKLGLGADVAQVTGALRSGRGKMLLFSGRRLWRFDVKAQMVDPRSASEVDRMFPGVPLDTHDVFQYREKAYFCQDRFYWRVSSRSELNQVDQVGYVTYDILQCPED
Protocol: proMMP9/MMP3 P126 Activation Assay
The reaction volume was 50 μL. […] Reactivity of residual MMP3 towards P-126 substrate was minimal under these conditions.

Structure (SMILES): COc1cc(C)c(C(N)=O)cc1Nc1nc(-c2ccc3c(c2)ncn3C)cs1 [Example 1, 4-Methoxy-2-methyl-5-[4-(1-methyl-1H-benzoimidazol-5-yl)-thiazol-2-ylamino]-benzamide]
- pKd [1]: 5.12
- pKd [2]: 5.77
- pIC50 [3]: 5.64

Structure (SMILES): CC(C)Cc1ccc(C(N)=O)cc1Nc1nc(-c2ccc3c(c2)ncn3C)cs1 [Example 2, 4-Isobutyl-3-[4-(1-methyl-1H-benzoimidazol-5-yl)-thiazol-2-ylamino]-benzamide•TFA]
- pKd [1]: 5.22
- pKd [2]: 6.16
- pIC50 [3]: ~5.52

Structure (SMILES): CC(C)Oc1ccc(S(N)(=O)=O)cc1Nc1nc(-c2ccc3c(c2)ncn3C)cs1 [Example 9, 4-Isopropoxy-3-[4-(1-methyl-1H-benzoimidazol-5-yl)-thiazol-2-ylamino]-benzenesulfonamide•HCl]
- pKd [1]: 5.70
- pKd [2]: 6.59
- pIC50 [3]: 6.82

Structure (SMILES): COc1ccc(C(N)=O)cc1Nc1nc(-c2ccc3c(c2)ncn3C)cs1 [Example 10, 4-Methoxy-3-[4-(1-methyl-1H-benzoimidazol-5-yl)-thiazol-2-ylamino]-benzamide]
- pKd [1]: 6.00
- pKd [2]: 6.49
- pIC50 [3]: 6.07

Structure (SMILES): COc1ccc(S(N)(=O)=O)cc1Nc1nc(-c2ccc3c(c2)ncn3C)cs1 [Example 11, 4-Methoxy-3-[4-(1-methyl-1H-benzoimidazol-5-yl)-thiazol-2-ylamino]-benzenesulfonamide]
- pKd [1]: 4.96
- pKd [2]: 5.32
- pIC50 [3]: 6.07

Structure (SMILES): Cn1cnc2cc(-c3csc(Nc4cc(S(N)(=O)=O)ccc4OC(F)(F)F)n3)ccc21 [Example 12, 3-[4-(1-Methyl-1H-benzoimidazol-5-yl)-thiazol-2-ylamino]-4-trifluoromethoxy-benzenesulfonamide]
- pKd [1]: 5.28
- pKd [2]: 6.12
- pIC50 [3]: 6.07

Structure (SMILES): CC(C)Oc1ccc(C(N)=O)cc1Nc1nc(-c2ccc3c(cnn3C)c2)cs1 [Example 14, 4-Isopropoxy-3-[4-(1-methyl-1H-indazol-5-yl)-thiazol-2-ylamino]-benzamide•TFA]
- pKd [1]: 6.17
- pKd [2]: 7.17
- pIC50 [3]: 6.46

Structure (SMILES): CC(C)Oc1ccc(S(N)(=O)=O)cc1Nc1nc(-c2ccc3c(cnn3C)c2)cs1 [Example 15, 4-Isopropoxy-3-[4-(1-methyl-1H-indazol-5-yl)-thiazol-2-ylamino]-benzenesulfonamide•TFA]
- pKd [1]: 6.55
- pKd [2]: 6.96
- pIC50 [3]: 6.26

Structure (SMILES): Cn1ncc2cc(-c3csc(Nc4cc(C(N)=O)ccc4OC(F)(F)F)n3)ccc21 [Example 16, 3-[4-(1-Methyl-1H-indazol-5-yl)-thiazol-2-ylamino]-4-trifluoromethoxy-benzamide•TFA]
- pKd [1]: 5.17
- pKd [2]: 6.57
- pIC50 [3]: ~5.70

Structure (SMILES): CCn1c(C)nc2cc(-c3csc(Nc4cc(S(N)(=O)=O)ccc4OC(C)C)n3)ccc21 [Example 17, 3-[4-(1-Ethyl-2-methyl-1H-benzoimidazol-5-yl)-thiazol-2-ylamino]-4-isopropoxy-benzenesulfonamide•HCl]
- pKd [1]: 6.07
- pKd [2]: 6.67
- pIC50 [3]: 6.52

Structure (SMILES): Cc1nc2cc(-c3csc(Nc4cc(S(N)(=O)=O)ccc4OC(C)C)n3)ccc2[nH]1 [Example 18, 4-Isopropoxy-3-[4-(2-methyl-1H-benzoimidazol-5-yl)-thiazol-2-ylamino]-benzenesulfonamide•TFA]
- pKd [1]: 6.36
- pKd [2]: 6.85
- pIC50 [3]: 6.44

Structure (SMILES): CCCn1cnc2ccc(-c3csc(Nc4cc(S(N)(=O)=O)ccc4OC(C)C)n3)cc21 [Example 19, 4-Isopropoxy-3-[4-(3-propyl-3H-benzoimidazol-5-yl)-thiazol-2-ylamino]-benzenesulfonamide•TFA]
- pKd [1]: 6.08
- pKd [2]: 6.77
- pIC50 [3]: 6.34

Structure (SMILES): CC(C)Oc1ccc(S(N)(=O)=O)cc1Nc1nc(-c2ccc3sccc3c2)cs1 [Example 20, 3-(4-Benzo[b]thiophen-5-yl-thiazol-2-ylamino)-4-isopropoxy-benzenesulfonamide•TFA]
- pKd [1]: 5.92
- pKd [2]: 6.35
- pIC50 [3]: 5.44

Structure (SMILES): CC(C)Oc1ccc(S(N)(=O)=O)cc1Nc1nc(-c2ccc3[nH]cnc3c2)cs1 [Example 21, 3-[4-(1H-Benzoimidazol-5-yl)-thiazol-2-ylamino]-4-isopropoxy-benzenesulfonamide•TFA]
- pKd [1]: 5.85
- pKd [2]: 7.04
- pIC50 [3]: 6.49

Structure (SMILES): CC(C)Oc1ccc(S(N)(=O)=O)cc1Nc1nc(-c2ccc3c(c2)nc(CN2CCN(C)CC2)n3C)cs1 [Example 30]
- pKd [2]: 7.06
- pIC50 [3]: 7.09

Structure (SMILES): CC(C)Oc1ccc(S(N)(=O)=O)cc1Nc1nc(-c2ccc3c(c2)nc(CN(C)C)n3C)cs1 [Example 31, 3-((4-(2-((Dimethylamino)methyl)-1-methyl-1H-benzo[d]imidazol-5-yl)thiazol-2-yl)amino)-4-isopropoxybenzenesulfonamide•TFA]
- pKd [2]: 7.28
- pIC50 [3]: 7.14

Structure (SMILES): CC(C)Oc1ccc(S(N)(=O)=O)cc1Nc1nc(-c2ccc3c(c2)nc(CN(C)CCN(C)C)n3C)cs1 [Example 32, 3-((4-(2-(((2-(Dimethylamino)ethyl)(methyl)amino)methyl)-1-methyl-1H-benzo[d]imidazol-5-yl)thiazol-2-yl)amino)-4-isopropoxybenzenesulfonamide•TFA]
- pKd [2]: 7.28
- pIC50 [3]: 6.70

Structure (SMILES): CC(C)Oc1ccc(S(N)(=O)=O)cc1Nc1nc(-c2ccc3[nH]c(=O)[nH]c3c2)cs1 [Example 33]
- pKd [2]: 7.09
- pIC50 [3]: 6.77

Structure (SMILES): CC(C)Oc1ccc(S(N)(=O)=O)cc1Nc1nc(-c2ccc3[nH]c(N)nc3c2)cs1 [Example 34, 3-((4-(2-Amino-1H-benzo[d]imidazol-5-yl)thiazol-2-yl)amino)-4-isopropoxybenzenesulfonamide•TFA]
- pKd [2]: 7.36
- pIC50 [3]: 6.82
